In experiment [1] the target is serotonin reuptake inhibitor (Homo sapiens, UniProt P31645). Particulars: very weak activity; Tatsumi et al [1997]; cited from earlier work.
Experiment [2] addresses 5-HT7 (h) (Homo sapiens, UniProt P34969). Particulars: range of concentrations; FIG. 2. As to the method:
The apparent dissociation constants for antagonists Kb were calculated using the modified Cheng Prusoff equation.

Experiment [3] addresses noradrenergic reuptake transporters (Homo sapiens, UniProt P23975). Particulars: Tatsumi et al [1997]; cited from earlier work.
For experiment [4], the target named is 5-HT1D (Rattus norvegicus, UniProt P28565). The experiment in a line: biochemical. Conditions: read-out: % Inhib. The text has this: (§1) Briefly, recombinant 5-HT7 receptors were expressed in a CHO cell line. The receptors were then saturated with a tritiated receptor-specific ligand at concentrations known to be saturating.
Experiment [5] concerns the target 5-HT3 (h) (Homo sapiens, UniProt P46098). The experiment can be described thus: biochemical. Particulars: read-out: % Inhib.
From the text: as §1

The target of experiment [6] is 5-HT4e (h) (Homo sapiens, UniProt Q13639). The experiment in a line: biochemical. Particulars: read-out: % Inhib.
From the text: as §1

Experiment [7] addresses 5-HT6 (h) (Homo sapiens, UniProt P50406). The experiment can be described thus: biochemical. Conditions: read-out: % Inhib.
From the text: as §1

For experiment [8], the target named is 5-HT5A (h) (Homo sapiens, UniProt P47898). The experiment in a line: biochemical. Conditions: read-out: % Inhib.
From the text: as §1

For experiment [9] the following is noted: background statement; cited from earlier work.

Chain of serotonin reuptake inhibitor (P31645 whole entry): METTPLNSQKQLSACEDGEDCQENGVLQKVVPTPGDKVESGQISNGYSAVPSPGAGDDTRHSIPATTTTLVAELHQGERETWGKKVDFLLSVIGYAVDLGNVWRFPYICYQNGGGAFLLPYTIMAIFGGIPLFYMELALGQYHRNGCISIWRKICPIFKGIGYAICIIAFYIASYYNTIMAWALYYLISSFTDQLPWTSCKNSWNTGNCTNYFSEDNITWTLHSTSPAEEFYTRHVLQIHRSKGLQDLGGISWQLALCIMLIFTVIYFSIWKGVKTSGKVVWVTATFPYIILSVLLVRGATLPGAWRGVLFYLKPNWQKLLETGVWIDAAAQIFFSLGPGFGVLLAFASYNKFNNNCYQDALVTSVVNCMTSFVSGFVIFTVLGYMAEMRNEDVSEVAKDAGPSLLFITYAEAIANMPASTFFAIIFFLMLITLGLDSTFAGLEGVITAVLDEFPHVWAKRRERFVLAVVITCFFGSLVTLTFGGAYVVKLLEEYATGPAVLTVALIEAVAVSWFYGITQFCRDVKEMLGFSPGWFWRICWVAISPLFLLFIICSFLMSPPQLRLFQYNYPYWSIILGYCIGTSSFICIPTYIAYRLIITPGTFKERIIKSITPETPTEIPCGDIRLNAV
Chain of 5-HT5A (h) (P47898 whole entry): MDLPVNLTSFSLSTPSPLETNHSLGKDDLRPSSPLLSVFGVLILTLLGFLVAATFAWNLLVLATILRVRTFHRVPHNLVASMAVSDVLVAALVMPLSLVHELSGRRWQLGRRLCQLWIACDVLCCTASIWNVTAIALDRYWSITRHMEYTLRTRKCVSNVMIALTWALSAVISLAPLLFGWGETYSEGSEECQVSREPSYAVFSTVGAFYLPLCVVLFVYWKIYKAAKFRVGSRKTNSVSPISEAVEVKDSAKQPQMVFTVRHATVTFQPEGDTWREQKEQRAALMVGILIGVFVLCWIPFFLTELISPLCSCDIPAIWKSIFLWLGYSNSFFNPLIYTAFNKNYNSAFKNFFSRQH
Chain of 5-HT3 (h) (P46098 24-478): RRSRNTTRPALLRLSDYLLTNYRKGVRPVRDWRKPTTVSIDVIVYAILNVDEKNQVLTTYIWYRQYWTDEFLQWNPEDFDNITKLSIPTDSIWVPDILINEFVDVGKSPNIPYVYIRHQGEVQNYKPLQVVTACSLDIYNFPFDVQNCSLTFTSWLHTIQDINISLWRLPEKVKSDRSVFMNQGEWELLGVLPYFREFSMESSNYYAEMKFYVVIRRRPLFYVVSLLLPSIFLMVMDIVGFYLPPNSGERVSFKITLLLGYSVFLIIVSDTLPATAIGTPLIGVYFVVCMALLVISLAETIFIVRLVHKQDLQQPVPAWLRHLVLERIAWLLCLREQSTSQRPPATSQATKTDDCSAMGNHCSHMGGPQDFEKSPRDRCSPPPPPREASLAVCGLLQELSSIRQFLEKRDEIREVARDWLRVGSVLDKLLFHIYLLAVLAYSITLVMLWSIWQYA
Chain of 5-HT7 (h) (P34969 whole entry): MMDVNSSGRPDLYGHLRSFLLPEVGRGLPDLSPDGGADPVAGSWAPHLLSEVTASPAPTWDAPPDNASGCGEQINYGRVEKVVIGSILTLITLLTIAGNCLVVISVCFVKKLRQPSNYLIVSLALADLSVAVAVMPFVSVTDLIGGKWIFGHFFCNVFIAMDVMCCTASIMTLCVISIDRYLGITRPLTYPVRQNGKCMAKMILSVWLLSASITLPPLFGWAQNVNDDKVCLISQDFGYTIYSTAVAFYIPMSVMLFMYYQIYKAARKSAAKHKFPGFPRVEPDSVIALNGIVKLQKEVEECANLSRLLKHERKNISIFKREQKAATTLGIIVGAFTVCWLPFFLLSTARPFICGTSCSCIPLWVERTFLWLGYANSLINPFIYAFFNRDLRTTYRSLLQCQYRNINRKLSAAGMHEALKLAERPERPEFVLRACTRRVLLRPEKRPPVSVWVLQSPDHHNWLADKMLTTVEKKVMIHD
Chain of 5-HT4e (h) (Q13639 1-378 isoform Q13639-5): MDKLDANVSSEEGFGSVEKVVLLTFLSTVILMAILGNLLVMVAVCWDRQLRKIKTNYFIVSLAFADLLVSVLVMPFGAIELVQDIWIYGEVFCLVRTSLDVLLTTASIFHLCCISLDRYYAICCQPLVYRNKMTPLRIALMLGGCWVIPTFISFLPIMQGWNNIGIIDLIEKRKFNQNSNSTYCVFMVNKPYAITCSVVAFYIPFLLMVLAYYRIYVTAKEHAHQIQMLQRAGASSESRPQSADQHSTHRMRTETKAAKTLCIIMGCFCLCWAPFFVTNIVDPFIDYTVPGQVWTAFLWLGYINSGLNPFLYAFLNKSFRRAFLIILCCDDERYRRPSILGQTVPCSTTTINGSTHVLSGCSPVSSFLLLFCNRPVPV
Chain of 5-HT6 (h) (P50406 whole entry): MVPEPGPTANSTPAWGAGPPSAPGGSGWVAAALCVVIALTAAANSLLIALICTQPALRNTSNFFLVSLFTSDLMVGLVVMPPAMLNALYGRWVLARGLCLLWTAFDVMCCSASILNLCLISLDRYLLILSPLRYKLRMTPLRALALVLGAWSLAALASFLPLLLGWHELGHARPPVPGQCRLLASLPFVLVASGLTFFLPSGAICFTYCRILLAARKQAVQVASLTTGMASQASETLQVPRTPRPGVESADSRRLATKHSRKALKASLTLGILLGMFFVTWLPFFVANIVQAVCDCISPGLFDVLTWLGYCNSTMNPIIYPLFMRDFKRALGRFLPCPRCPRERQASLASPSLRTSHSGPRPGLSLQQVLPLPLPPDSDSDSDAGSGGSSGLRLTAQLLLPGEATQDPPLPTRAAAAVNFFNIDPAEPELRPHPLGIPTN
Chain of 5-HT1D (P28565 whole entry): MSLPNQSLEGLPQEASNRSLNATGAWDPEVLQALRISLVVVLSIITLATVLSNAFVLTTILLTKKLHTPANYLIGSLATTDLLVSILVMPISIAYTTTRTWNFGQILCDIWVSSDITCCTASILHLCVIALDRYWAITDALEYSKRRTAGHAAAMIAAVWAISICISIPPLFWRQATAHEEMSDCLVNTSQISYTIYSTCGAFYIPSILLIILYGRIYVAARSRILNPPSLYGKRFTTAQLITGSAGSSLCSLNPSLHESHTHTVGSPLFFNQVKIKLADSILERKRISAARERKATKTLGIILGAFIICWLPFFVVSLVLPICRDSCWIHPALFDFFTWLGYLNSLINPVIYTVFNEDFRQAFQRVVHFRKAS
Chain of noradrenergic reuptake transporters (P23975 whole entry): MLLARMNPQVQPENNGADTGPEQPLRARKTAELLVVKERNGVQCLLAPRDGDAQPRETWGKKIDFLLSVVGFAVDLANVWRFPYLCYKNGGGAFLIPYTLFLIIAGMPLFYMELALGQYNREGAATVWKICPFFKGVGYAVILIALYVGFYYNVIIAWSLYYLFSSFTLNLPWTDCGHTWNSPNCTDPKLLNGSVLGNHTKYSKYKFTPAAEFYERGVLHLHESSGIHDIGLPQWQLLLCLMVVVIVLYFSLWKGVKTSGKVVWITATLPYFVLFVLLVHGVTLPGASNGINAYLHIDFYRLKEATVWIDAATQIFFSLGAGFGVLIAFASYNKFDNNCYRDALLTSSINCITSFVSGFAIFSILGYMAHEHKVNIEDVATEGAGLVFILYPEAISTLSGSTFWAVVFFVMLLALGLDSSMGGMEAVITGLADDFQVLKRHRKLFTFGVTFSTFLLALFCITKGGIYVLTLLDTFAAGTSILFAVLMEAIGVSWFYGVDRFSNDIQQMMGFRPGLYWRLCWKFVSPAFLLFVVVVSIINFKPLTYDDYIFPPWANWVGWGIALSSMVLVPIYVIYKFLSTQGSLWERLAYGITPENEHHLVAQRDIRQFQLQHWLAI

As for `CCOc1ccccc1OCC1CNCCO1` (racemic) [viloxazine, Viloxazine], the “activity at the serotonin reuptake inhibitor” value in [1] is 17.3 μm. In addition, the “agonist effect (cAMP response)” value in [2] is “no measurable response”. Also, the “inhibition of noradrenergic reuptake transporters” value in experiment [3] is given as 155 nM. Moreover, the inhibition at 0.001 µM was found to be 18% in [4] and 15% in [8]. The inhibition at 0.0005 µM in [5] turned out to be 18%. Moreover, in experiment [6], the inhibition at 0.0003 µM was 16%. For the same molecule, the inhibition at 0.002 µM in experiment [7] was 6%.

Turning to `CCOc1ccccc1OC[C@@H]1CNCCO1` (single isomer, unassigned) [S(−)-isomer], in experiment [9], the “pharmacological activity relative to R(+)-isomer” value is given as “five times more pharmacologically active than the R(+)-isomer”.
